Reference: US9701662B2, “Herbicidal compounds” (Syngenta Participations AG, priority 2014, dated 2017)

Assays:
Type in all cases: in vivo
[1] = system: Setaria faberi (SETFA); assay: Pre-emergence glasshouse herbicide test; conditions: pre-emergence (sprayed after one day cultivation), 1000 g/h, evaluated after 13 days, five point scale
Protocol: (§1) Seeds of a variety of test species are sown in standard soil in pots (Lolium perenne (LOLPE), Solanum nigrum (SOLNI), Amaranthus retoflexus (AMARE), Setaria faberi (SETFA), Echinochloa crus-galli (ECHCG), Ipomoea hederacea (IPOHE)). After cultivation for one day (pre-emergence) or after 8 days cultivation (post-emergence) under controlled conditions in a glasshouse (at 24/16° C., day/night; 14 hours light; 65% humidity), the plants are sprayed with an aqueous spray solution derived from the formulation of the technical active ingredient in acetone/water (50:50) solution containing 0.5% Tween 20 (polyoxyethelyene sorbitan monolaurate, CAS RN 9005-64-5). Compounds are applied at 1000 g/h. The test plants are then grown in a glasshouse under controlled conditions in a glasshouse (at 24/16° C., day/night; 14 hours light; 65% humidity) and watered twice daily. After 13 days for pre and post-emergence, the test is evaluated for the percentage damage caused to the plant. The biological activities are shown in the following table on a five point scale (5=80-100%; 4=60-79%; 3=40-59%; 2=20-39%; 1=0-19%).

[2] = system: Amaranthus retoflexus (AMARE); assay: Pre-emergence glasshouse herbicide test; conditions: pre-emergence (sprayed after one day cultivation), 1000 g/h, evaluated after 13 days, five point scale
Protocol: as §1

[3] = system: Echinochloa crus-galli (ECHCG); assay: Pre-emergence glasshouse herbicide test; conditions: pre-emergence (sprayed after one day cultivation), 1000 g/h, evaluated after 13 days, five point scale
Protocol: as §1

[4] = system: Solanum nigrum (SOLNI); assay: Pre-emergence glasshouse herbicide test; conditions: pre-emergence (sprayed after one day cultivation), 1000 g/h, evaluated after 13 days, five point scale
Protocol: as §1

[5] = system: Ipomoea hederacea (IPOHE); assay: Pre-emergence glasshouse herbicide test; conditions: pre-emergence (sprayed after one day cultivation), 1000 g/h, evaluated after 13 days, five point scale
Protocol: as §1

[6] = system: Lolium perenne (LOLPE); assay: Pre-emergence glasshouse herbicide test; conditions: pre-emergence (sprayed after one day cultivation), 1000 g/h, evaluated after 13 days, five point scale
Protocol: as §1

[7] = system: Setaria faberi (SETFA); assay: Post-emergence glasshouse herbicide test; conditions: post-emergence (sprayed after 8 days cultivation), 1000 g/h, evaluated after 13 days, five point scale
Protocol: as §1

[8] = system: Amaranthus retoflexus (AMARE); assay: Post-emergence glasshouse herbicide test; conditions: post-emergence (sprayed after 8 days cultivation), 1000 g/h, evaluated after 13 days, five point scale
Protocol: as §1

[9] = system: Echinochloa crus-galli (ECHCG); assay: Post-emergence glasshouse herbicide test; conditions: post-emergence (sprayed after 8 days cultivation), 1000 g/h, evaluated after 13 days, five point scale
Protocol: as §1

[10] = system: Solanum nigrum (SOLNI); assay: Post-emergence glasshouse herbicide test; conditions: post-emergence (sprayed after 8 days cultivation), 1000 g/h, evaluated after 13 days, five point scale
Protocol: as §1

[11] = system: Ipomoea hederacea (IPOHE); assay: Post-emergence glasshouse herbicide test; conditions: post-emergence (sprayed after 8 days cultivation), 1000 g/h, evaluated after 13 days, five point scale
Protocol: as §1

[12] = system: Lolium perenne (LOLPE); assay: Post-emergence glasshouse herbicide test; conditions: post-emergence (sprayed after 8 days cultivation), 1000 g/h, evaluated after 13 days, five point scale
Protocol: as §1

`CCOc1c(C(=O)Nc2nnnn2C)nn(C)c(=O)c1-c1ccc(Cl)c(Cl)c1` [Compound 1.032] was tested, and the “percentage damage caused to the plant, SETFA, PRE Application” value [1] was 5 (5=80-100%), the “percentage damage caused to the plant, AMARE, PRE Application” value [2] was 5 (5=80-100%) and the “percentage damage caused to the plant, ECHCG, PRE Application” value [3] was 5 (5=80-100%). The “percentage damage caused to the plant, SOLNI, PRE Application” value [4] was 5 (5=80-100%), the “percentage damage caused to the plant, IPOHE, PRE Application” value [5] was 4 (4=60-79%) and the “percentage damage caused to the plant, LOLPE, PRE Application” value [6] was 4 (4=60-79%). For the same compound, the “percentage damage caused to the plant, SETFA, POST Application” value [7] was 5 (5=80-100%), the “percentage damage caused to the plant, AMARE, POST Application” value [8] was 5 (5=80-100%) and the “percentage damage caused to the plant, ECHCG, POST Application” value [9] was 5 (5=80-100%). For the same compound, the “percentage damage caused to the plant, SOLNI, POST Application” value [10] was 5 (5=80-100%), the “percentage damage caused to the plant, IPOHE, POST Application” value [11] was 4 (4=60-79%) and the “percentage damage caused to the plant, LOLPE, POST Application” value [12] was 4 (4=60-79%).
For `COc1cccc(-c2c(Cl)c(C(=O)Nc3nnnn3C)nn(C)c2=O)c1` [Compound 1.036], the “percentage damage caused to the plant, SETFA, PRE Application” value [1] was 5 (5=80-100%), the “percentage damage caused to the plant, AMARE, PRE Application” value [2] was 5 (5=80-100%) and the “percentage damage caused to the plant, ECHCG, PRE Application” value [3] was 5 (5=80-100%). The “percentage damage caused to the plant, SOLNI, PRE Application” value [4] was 5 (5=80-100%), the “percentage damage caused to the plant, IPOHE, PRE Application” value [5] was 2 (2=20-39%) and the “percentage damage caused to the plant, LOLPE, PRE Application” value [6] was 5 (5=80-100%). The “percentage damage caused to the plant, SETFA, POST Application” value [7] was 5 (5=80-100%), the “percentage damage caused to the plant, AMARE, POST Application” value [8] was 5 (5=80-100%) and the “percentage damage caused to the plant, ECHCG, POST Application” value [9] was 5 (5=80-100%). The “percentage damage caused to the plant, SOLNI, POST Application” value [10] was 5 (5=80-100%), the “percentage damage caused to the plant, IPOHE, POST Application” value [11] was 4 (4=60-79%) and the “percentage damage caused to the plant, LOLPE, POST Application” value [12] was 5 (5=80-100%).
In the case of `Cn1nnnc1NC(=O)c1nn(C)c(=O)c(-c2ccccc2C(F)(F)F)c1Cl` [Compound 1.037], the “percentage damage caused to the plant, SETFA, PRE Application” value [1] is reported as 5 (5=80-100%), the “percentage damage caused to the plant, AMARE, PRE Application” value [2] is reported as 5 (5=80-100%) and the “percentage damage caused to the plant, ECHCG, PRE Application” value [3] is reported as 5 (5=80-100%). The “percentage damage caused to the plant, SOLNI, PRE Application” value [4] was 5 (5=80-100%), the “percentage damage caused to the plant, IPOHE, PRE Application” value [5] was 5 (5=80-100%) and the “percentage damage caused to the plant, LOLPE, PRE Application” value [6] was 5 (5=80-100%). The “percentage damage caused to the plant, SETFA, POST Application” value [7] was 5 (5=80-100%), the “percentage damage caused to the plant, AMARE, POST Application” value [8] was 5 (5=80-100%) and the “percentage damage caused to the plant, ECHCG, POST Application” value [9] was 5 (5=80-100%). For the same compound, the “percentage damage caused to the plant, SOLNI, POST Application” value [10] was 5 (5=80-100%), the “percentage damage caused to the plant, IPOHE, POST Application” value [11] was 5 (5=80-100%) and the “percentage damage caused to the plant, LOLPE, POST Application” value [12] was 5 (5=80-100%).
